The source of these data is patent publication US20130172191A1, “STABLE ETHYLENE INHIBITING COMPOUNDS AND METHODS FOR THEIR PREPARATION” (priority 2002, published 2013).

Data set [1] in a line: Control experiment: 1,2-diiodo-1-methylcyclopropane in tetrahydrofuran without reagent, GC of headspace. In kind it is physicochemical. The note with it: 0.30 g in 2 ml tetrahydrofuran, no reagent, stirring 5 minutes; 1 ppm easily detectable. As for the experimental part: (§1) Into a 50 ml Florence flask with magnetic stirring was placed 2 ml of tetrahydrofuran and 0.30 g of 1,2-diiodo-1-methylcyclopropane. […] GC method uses Varian CP-PoraBOND Q column 10 meters long 0.32 mm ID; helium carrier; initial temperature 50° C.; initial time 0 minutes; ramp rate 20° C./min; final temperature 270° C.; final time 5 minutes; injection volume 0.20 ml. The retention time of an authentic sample of 1-methylcyclopropene was 2.91 minutes. 1 ppm is easily detectable under these conditions.

Data set [2] can be described thus: Chemically induced release of a cyclopropene (1-methylcyclopropene) by a reducing or nucleophilic agent, GC of headspace. Type of data set: physicochemical. As for the experimental part: as §1
Into a 100 ml Florence flask with magnetic stirring was placed 2 ml of tetrahydrofuran and 1.0 g of zinc dust. The zinc was activated with 10 drops of 1,2-dibromoethane. Then 0.34 g of 1,2-diiodo-1-methylcyclopropane was added.
Into a 100 ml Florence flask with magnetic stirring was placed 2 ml of methanol and 1.0 g of zinc dust. The zinc was activated with 10 drops of 1,2-dibromoethane. Then 0.34 g of 1,2-diiodo-1-methylcyclopropane was added.
Into a 100 ml Florence flask with magnetic stirring was placed 2 ml of tetrahydrofuran and 1.1 g of magnesium turnings. The magnesium was activated with 10 drops of 1,2-dibromoethane. Then 0.35 g of 1,2-diiodo-1-methylcyclopropane was added.
Into a 50 ml Florence flask with magnetic stirring was placed 3 g of dimethylformamide and 1.2 g of triphenylphosphine. Then 0.83 g of 1,2-diiodo-1-methylcyclopropane was added.
Into a 100 ml Florence flask with magnetic stirring was placed 2 g of dimethylformamide, 0.70 g of potassium t-butoxide, and 0.84 g of 4-methylbenzenethiol. Then 0.40 g of 1,2-diiodo-1-methylcyclopropane was added.
The polymeric reagent was prepared by slurrying 50 ml of Duolite™ GT73 (Rohm and Haas Company) and stirring for two hours with 50 ml of water and 10 g of 45% aqueous potassium hydroxide. The slurry was filtered, washed twice with water, thrice with methanol, air dried, and placed in a vacuum oven overnight. 0.54 g of this polymeric reagent was placed in a 122 ml vial and the beads were wetted with 0.10 g of 1,2-diiodo-1-methylcyclopropane in 0.70 g of methanol.

Take `CC1(I)CC1I` (stereo not shown) [Example 60, 1,2-diiodo-1-methylcyclopropane]: the “1-methylcyclopropene in headspace (GC analysis)” value in data set [1] is given as “no detectable 1-methylcyclopropene”; in data set [2] (4-methylbenzenethiol 0.84 g, potassium t-butoxide 0.70 g in 2 g dimethylformamide, 0.40 g precursor, 100 ml flask, 15 minutes at room temperature) it was 87567 ppm; in data set [2] (magnesium turnings 1.1 g (activated with 1,2-dibromoethane) in 2 ml tetrahydrofuran, 0.35 g precursor, 100 ml flask, stirring 3 hours), 49993 ppm; in data set [2] (polymeric benzenethiol reagent (Duolite GT73, KOH treated) 0.54 g, 0.10 g precursor in 0.70 g methanol, 122 ml vial, overnight at room temperature) it was 134 ppm; in data set [2] (triphenylphosphine 1.2 g in 3 g dimethylformamide, 0.83 g precursor, 50 ml flask, 15 minutes at room temperature) it was 10 ppm; in data set [2] (zinc dust 1.0 g (activated with 1,2-dibromoethane) in 2 ml methanol, 0.34 g precursor, 100 ml flask, stirring 30 minutes), 98390 ppm. Further, in data set [2] (zinc dust 1.0 g (activated with 1,2-dibromoethane) in 2 ml tetrahydrofuran, 0.34 g precursor, 100 ml flask, stirring 20 hours), the “1-methylcyclopropene in headspace (GC analysis)” value is listed as 4658 ppm.
